Reference: PMC7265341, “Quantifying CDK inhibitor selectivity in live cells” (Nature Communications, 2020)
Several values for one entry are separate records, joined by “and”; a condition that tells them apart may be missing. Equal entries are not always repeated.

Tests used:
[1] = target: T1, CDK9 (HiBiT, endogenous locus) (Homo sapiens, UniProt P50750); assay: Target engagement in HEK293 endogenously edited (CRISPR/Cas9) with HiBiT on CDK9; type: binding; parameters: unit not given here
T1 construct: endogenous in cells; host or cells: HEK293 edited by CRISPR/Cas9, transduced with LgBiT BacMam

CDK7 = CDK7 (Homo sapiens, UniProt P50613); assay: Real-time analysis of engagement (kobs, IC50 vs time) in live cells, CDK7; type: binding
Experimental: Cells were pre-equilibrated with energy transfer probe for 40 min prior to addition of […]
intervals at 25 °C (temperature reduced to avoid evaporation of cell culture medium). To quantify […]
vs time. Apparent association rate was also plotted as k obs vs [RGB286638], where kobs was determined using the one phase association equation (Supplementary Equation 2) in graphpad prism.
Y=Y0 + (Plateau-Y0)*(1-e-K*X) (2) where Y = mBRET ratio, X = time, and K = the observed rate constant ( kobs). […]
CDK7 (left) and CDK6 (right) to generate kobs. Kinetic traces were collected in a single biological experiment (n = 1), where individual data points represent the mean ± S.D of technical triplicates (n = 3).
(B) kobs values (n = 1) were generated from panel A by fitting Supplementary Equation 2, and were then […]
collected at each timepoint represent technical singlicates (n = 1 ). Source data are provided as a Source

[2] = LOG10([THZ1]) (LOG10(µM)) 0.346787
[3] = LOG10([THZ1]) (LOG10(µM)) 0.823909
[4] = LOG10([THZ1]) (LOG10(µM)) 1.30103, Replicates 1 and 2
[5] = LOG10([THZ1]) (LOG10(µM)) -0.60746
[6] = LOG10([THZ1]) (LOG10(µM)) -1.08458
[7] = LOG10([THZ1]) (LOG10(µM)) -1.5617
[8] = LOG10([THZ1]) (LOG10(µM)) -2.03882
[9] = LOG10([THZ1]) (LOG10(µM)) -2.51594
[10] = LOG10([THZ1]) (LOG10(µM)) -2.99306
[11] = LOG10([THZ1]) (LOG10(µM)) -3.47018
[12] = LOG10([THZ1]) (LOG10(µM)) -3.9473

T1 sequence (P50750 whole entry): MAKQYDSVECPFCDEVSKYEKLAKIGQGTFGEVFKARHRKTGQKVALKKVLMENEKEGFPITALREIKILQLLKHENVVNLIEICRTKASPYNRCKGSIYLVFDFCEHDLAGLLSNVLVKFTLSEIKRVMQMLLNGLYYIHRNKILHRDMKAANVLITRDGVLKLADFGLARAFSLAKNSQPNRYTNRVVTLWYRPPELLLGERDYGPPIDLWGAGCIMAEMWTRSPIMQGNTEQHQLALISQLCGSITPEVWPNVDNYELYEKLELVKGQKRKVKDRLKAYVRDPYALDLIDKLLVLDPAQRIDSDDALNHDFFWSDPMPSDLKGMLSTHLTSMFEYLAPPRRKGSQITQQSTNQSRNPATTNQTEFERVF
Sequence of CDK7 (P50613 whole entry): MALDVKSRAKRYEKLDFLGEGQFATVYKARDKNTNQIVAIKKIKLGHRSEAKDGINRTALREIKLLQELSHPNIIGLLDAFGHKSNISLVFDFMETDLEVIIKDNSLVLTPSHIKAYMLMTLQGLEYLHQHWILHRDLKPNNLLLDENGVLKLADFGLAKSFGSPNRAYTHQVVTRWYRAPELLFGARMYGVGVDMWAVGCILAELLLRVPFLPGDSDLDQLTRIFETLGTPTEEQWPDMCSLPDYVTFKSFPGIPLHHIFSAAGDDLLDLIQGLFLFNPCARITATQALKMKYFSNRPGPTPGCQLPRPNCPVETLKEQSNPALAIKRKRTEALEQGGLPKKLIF

## COc1cc(F)ccc1-c1cc(Nc2cc(CS(C)(=N)=O)ccn2)ncc1F (stereo not shown) [BAY-1251152]
[1]; LOG10([BAY-1251152]) (LOG10(µM)) 0.045757
  CDK9 Occupancy Data, CRISPR/HiBiT: 108.918 and 104.91
[1]; LOG10([BAY-1251152]) (LOG10(µM)) 0.522879
  CDK9 Occupancy Data, CRISPR/HiBiT: 117.335 and 92.6854
[1]; LOG10([BAY-1251152]) (LOG10(µM)) 1
  CDK9 Occupancy Data, CRISPR/HiBiT: 97.495 and 102.505
[1]; LOG10([BAY-1251152]) (LOG10(µM)) -0.43136
  CDK9 Occupancy Data, CRISPR/HiBiT: 105.11 and 102.705
[1]; LOG10([BAY-1251152]) (LOG10(µM)) -0.90849
  CDK9 Occupancy Data, CRISPR/HiBiT: 108.717 and 93.6874
[1]; LOG10([BAY-1251152]) (LOG10(µM)) -1.38561
  CDK9 Occupancy Data, CRISPR/HiBiT: 87.2745 and 99.499
[1]; LOG10([BAY-1251152]) (LOG10(µM)) -1.86273
  CDK9 Occupancy Data, CRISPR/HiBiT: 72.6453 and 62.8257
[1]; LOG10([BAY-1251152]) (LOG10(µM)) -2.33985
  CDK9 Occupancy Data, CRISPR/HiBiT: 30.9619 and 31.9639

## CN(C)C/C=C/C(=O)Nc1ccc(C(=O)Nc2cccc(Nc3ncc(Cl)c(-c4c[nH]c5ccccc45)n3)c2)cc1 [THZ1]
CDK7; [2]
  mBRET values, 2h: 8.56 mBRET and 5.32 mBRET
  mBRET values, 6h: 7.65 mBRET and 4.87 mBRET
CDK7; [3]
  mBRET values, 2h: 7.68 mBRET and 4.86 mBRET
  mBRET values, 6h: 7.21 mBRET and 4.56 mBRET
CDK7; [4]
  mBRET values, 2h: 6.67 mBRET and 4.16 mBRET
  mBRET values, 6h: 6.77 mBRET and 4.18 mBRET
CDK7; [5]
  mBRET values, 2h: 15 mBRET and 7.79 mBRET
  mBRET values, 6h: 8.54 mBRET and 5.25 mBRET
CDK7; [6]
  mBRET values, 2h: 16.83 mBRET and 10.6 mBRET
  mBRET values, 6h: 9.55 mBRET and 5.83 mBRET
CDK7; [7]
  mBRET values, 2h: 18.12 mBRET and 11.5 mBRET
  mBRET values, 6h: 13.84 mBRET and 8.78 mBRET
CDK7; [8]
  mBRET values, 2h: 20.68 mBRET and 12.8 mBRET
  mBRET values, 6h: 18.55 mBRET and 12 mBRET
CDK7; [9]
  mBRET values, 2h: 20.88 mBRET and 13.4 mBRET
  mBRET values, 6h: 19.6 mBRET and 13.1 mBRET
CDK7; [10]
  mBRET values, 2h: 20.48 mBRET and 13.4 mBRET
  mBRET values, 6h: 19.14 mBRET and 12.9 mBRET
CDK7; [11]
  mBRET values, 2h: 19.82 mBRET and 13.5 mBRET
  mBRET values, 6h: 18.6 mBRET and 13.6 mBRET
CDK7; [12]
  mBRET values, 2h: 20.06 mBRET and 13.5 mBRET
  mBRET values, 6h: 19.78 mBRET and 13.4 mBRET
CDK7; LOG10([THZ1]) (LOG10(µM)) -0.13033
  mBRET values, 6h: 8.08 mBRET and 4.82 mBRET
